Assay results taken from patent publication US20240252527A9, “NUCLEOSIDE DRUGS FOR THE TREATMENT OR PREVENTION OF CORONAVIRUS INFECTION AND THEIR USES” (Miracure Biotechnology Limited, priority 2022, published 2024).
Read-outs that look alike come from different tables or passages of the source.

How the values were obtained:
[1] = system: OC43; test: OC43 Huh7 CPE assay (cytopathic experiment); format: cell-based, coronavirus OC43 (HCoV-OC43); settings: for EC50: read-out: OC43 Huh7 CPE assay (μM) EC50; for EC90: read-out: OC43 Huh7 CPE assay (μM) EC90
Experimental: (§1) Cells were seeded into microplates at a certain density and cultured overnight in a incubator at 5% CO2, 37° C. The next day, double-diluted compound and virus were added. It was set up a cell control group (cells without treatment with a compound or virus infection), a virus control group (cells infected with virus, no compound treatment) and a culture medium control group (medium only). Cells were cultured in the incubator for 3 days (229E) or 7 days (OC43). Cytotoxicity experiments were performed under the same conditions as antiviral experiments, but without virus infection. Cell viability was tested using a cell viability assay kit Cell Titer Glo (Promega).
(§2) The antiviral activity and cytotoxicity of the compounds were expressed by the inhibition rate (%) and cell viability (%) of the compounds against virus-induced cytopathic effects at different concentrations, respectively. Nonlinear fitting analysis on the inhibition rate and cell viability of the compounds were carried out with the GraphPad Prism, and the half effective concentration (EC50), the […] effective concentration (EC90), the half cytotoxic concentration (CC50) and the 90% cytotoxic concentration of the compound […] values were calculated.

[2] = system: 229E; test: 229E MRC5 CPE assay (cytopathic experiment); format: cell-based, coronavirus 229E (HCoV-229E)
Experimental: as §1, §2

[3] = Betacoronavirus 1, OC43, Huh-7, 168 h
[4] = Human coronavirus 229E, MRC5, 72 h, read-out: 229E MRC5 CPE assay (μM) EC50
[5] = Human coronavirus 229E, MRC5, 72 h, read-out: 229E MRC5 CPE assay (μM) EC90
[6] = Betacoronavirus 1, Huh-7, 168 h, Huh7 cells, OC43 virus, 7 days, Cell Titer Glo
[7] = Human coronavirus 229E, MRC5, 72 h; read-out: 229E MRC5 CPE assay (μM) EC50
[8] = Human coronavirus 229E, MRC5, 72 h; read-out: 229E MRC5 CPE assay (μM) EC90
[9] = Huh7 cells, OC43 virus, 7 days, Cell Titer Glo

Row | Structure (SMILES) | EC50 [1, 3] | EC90 [1, 3] | EC50 [2, 4] | EC90 [2, 5] | other results
1 | CCCC(CCC)C(=O)OCO[P@](=O)(NC(C)(C)C(=O)OCC(CC)CC)OC[C@H]1O[C@@](C#N)(c2ccc3c(N)ncnn23)[C@H](O)[C@@H]1O [Compound 120] | < 0.1 µM | 0.1 to 0.5 µM | < 0.1 µM | 0.1 to 0.5 µM | 
2 | CCCC(CCC)C(=O)OCO[P@@](=O)(NC(C)(C)C(=O)OCC(CC)CC)OC[C@H]1O[C@@](C#N)(c2ccc3c(N)ncnn23)[C@H](O)[C@@H]1O [Compound 121] | 0.1 to 0.5 µM | > 0.5 µM | 0.1 to 0.5 µM | 0.1 to 0.5 µM | 
3 | CCCC(CCC)C(=O)OCO[P@](=O)(NC(C)(C)C(=O)OC(C)C)OC[C@H]1O[C@@](C#N)(c2ccc3c(N)ncnn23)[C@H](O)[C@@H]1O [Compound 122] | 0.1 to 0.5 µM | 0.1 to 0.5 µM | 0.1 to 0.5 µM | 0.1 to 0.5 µM | 
4 | CCCC(CCC)C(=O)OCO[P@@](=O)(NC(C)(C)C(=O)OC(C)C)OC[C@H]1O[C@@](C#N)(c2ccc3c(N)ncnn23)[C@H](O)[C@@H]1O [Compound 123] | 0.1 to 0.5 µM | > 0.5 µM | 0.1 to 0.5 µM | 0.1 to 0.5 µM | 
5 | CCC(CC)COC(=O)[C@H](C)N[P@]1(=O)OC[C@H]2O[C@@](C#N)(c3ccc4c(N)ncnn34)[C@H](O)[C@@H]2O1 [Compound 126] | < 0.1 µM | 0.1 to 0.5 µM | < 0.1 µM | 0.1 to 0.5 µM | 
6 | CCC(CC)COC(=O)[C@H](C)NP(=O)(OC[C@H]1O[C@@](C#N)(c2ccc3c(N)ncnn23)[C@H](O)[C@@H]1O)Oc1cc(N)ccc1C(=O)OC (some centres unmarked) [Compound 128] |  |  |  |  | EC50 [1, 6]: > 0.5 µM; EC90 [1, 6]: > 0.5 µM; EC50 [2, 7]: > 0.5 µM; EC90 [2, 8]: > 0.5 µM
7 | CCCC(CCC)C(=O)OCO[P@@]1(=O)OC[C@H]2O[C@@](C#N)(c3ccc4c(N)ncnn34)[C@H](O)[C@@H]2O1 [Compound 129] | < 0.1 µM | > 0.5 µM | < 0.1 µM | < 0.1 µM | 
8 | CCCC(CCC)C(=O)OCO[P@]1(=O)OC[C@H]2O[C@@](C#N)(c3ccc4c(N)ncnn34)[C@H](O)[C@@H]2O1 [Compound 130] | < 0.1 µM | 0.1 to 0.5 µM | < 0.1 µM | 0.1 to 0.5 µM | 
9 | CCCC(CCC)C(=O)OCO[P@](=O)(N[C@@H](Cc1ccccc1)C(=O)OCC)OC[C@H]1O[C@@](C#N)(c2ccc3c(N)ncnn23)[C@H](O)[C@@H]1O [Compound 137] | < 0.1 µM | < 0.1 µM | < 0.1 µM | 0.1 to 0.5 µM | 
10 | CCCCOC(=O)[C@H](Cc1ccccc1)N[P@@](=O)(OCOC(=O)C(CCC)CCC)OC[C@H]1O[C@@](C#N)(c2ccc3c(N)ncnn23)[C@H](O)[C@@H]1O [Compound 138] | < 0.1 µM | < 0.1 µM | < 0.1 µM | 0.1 to 0.5 µM | 
11 | CCCC(CCC)C(=O)OCO[P@](=O)(N[C@@H](Cc1ccccc1)C(=O)OCC(CC)CC)OC[C@H]1O[C@@](C#N)(c2ccc3c(N)ncnn23)[C@H](O)[C@@H]1O [Compound 139] | < 0.1 µM | < 0.1 µM | < 0.1 µM | 0.1 to 0.5 µM | 
12 | CCC(CC)COC(=O)[C@H](C)N[P@@]1(=O)OC[C@H]2O[C@@](C#N)(c3ccc4c(N)ncnn34)[C@H](O)[C@@H]2O1 [Compound 140] | > 0.5 µM | > 0.5 µM | > 0.5 µM | > 0.5 µM | 
13 | CCCC(CCC)C(=O)OC(C)O[P@]1(=O)OC[C@H]2O[C@@](C#N)(c3ccc4c(N)ncnn34)[C@H](O)[C@@H]2O1 (some centres unmarked) [Compound 141] | > 0.5 µM | > 0.5 µM | > 0.5 µM | > 0.5 µM | 
14 | CCCC(CCC)C(=O)OC(C)O[P@]1(=O)OC[C@H]2O[C@@](C#N)(c3ccc4c(N)ncnn34)[C@H](O)[C@@H]2O1 (some centres unmarked) [Compound 142] |  |  |  |  | EC50 [1, 9]: > 0.5 µM; EC90 [1, 9]: > 0.5 µM; EC50 ([2]; read-out: 229E MRC5 CPE assay (μM) EC50; MRC5 cells, 229E virus, 3 days, Cell Titer Glo): > 0.5 µM; EC90 ([2]; read-out: 229E MRC5 CPE assay (μM) EC90; MRC5 cells, 229E virus, 3 days, Cell Titer Glo): > 0.5 µM
15 | CCCC(CCC)C(=O)OCO[P@]1(=S)OC[C@H]2O[C@@](C#N)(c3ccc4c(N)ncnn34)[C@H](O)[C@@H]2O1 [Compound 143] | > 0.5 µM | > 0.5 µM |  |  | EC50 [2, 7]: > 0.5 µM; EC90 [2, 8]: > 0.5 µM
16 | CCCC(CCC)C(=O)OCO[P@@]1(=S)OC[C@H]2O[C@@](C#N)(c3ccc4c(N)ncnn34)[C@H](O)[C@@H]2O1 [Compound 144] | > 0.5 µM | > 0.5 µM |  |  | EC50 [2, 7]: > 0.5 µM; EC90 [2, 8]: > 0.5 µM
17 | CC(C)OC(=O)OCO[P@@]1(=O)OC[C@H]2O[C@@](C#N)(c3ccc4c(N)ncnn34)[C@H](O)[C@@H]2O1 [Compound 145] | 0.1 to 0.5 µM | 0.1 to 0.5 µM | < 0.1 µM | 0.1 to 0.5 µM | 
18 | CC(C)OC(=O)CO[P@]1(=O)OC[C@H]2O[C@@](C#N)(c3ccc4c(N)ncnn34)[C@H](O)[C@@H]2O1 [Compound 146] | > 0.5 µM | > 0.5 µM | > 0.5 µM | > 0.5 µM | 
19 | CC(C)OC(=O)CO[P@@]1(=O)OC[C@H]2O[C@@](C#N)(c3ccc4c(N)ncnn34)[C@H](O)[C@@H]2O1 [Compound 147] | > 0.5 µM | > 0.5 µM | > 0.5 µM | > 0.5 µM | 
20 | CC(C)OC(=O)CO[P@]1(=S)OC[C@H]2O[C@@](C#N)(c3ccc4c(N)ncnn34)[C@H](O)[C@@H]2O1 [Compound 149] | > 0.5 µM | > 0.5 µM |  |  | EC50 [2, 7]: > 0.5 µM; EC90 [2, 8]: > 0.5 µM
21 | CC(C)OC(=O)CO[P@@]1(=S)OC[C@H]2O[C@@](C#N)(c3ccc4c(N)ncnn34)[C@H](O)[C@@H]2O1 [Compound 150] | > 0.5 µM | > 0.5 µM |  |  | EC50 [2, 7]: > 0.5 µM; EC90 [2, 8]: > 0.5 µM
22 | CCCC(CCC)C(=O)OCNc1ncnn2c([C@]3(C#N)O[C@H](COP(=O)(OCOC(=O)C(CCC)CCC)OCOC(=O)C(CCC)CCC)[C@@H](O)[C@H]3O)ccc12 [Compound 155] | > 0.5 µM | > 0.5 µM | 0.1 to 0.5 µM | > 0.5 µM | 
23 | CCCN(CCC)S(=O)(=O)c1ccc(C(=O)OCO[P@@]2(=O)OCC3O[C@@](C#N)(c4ccc5c(N)ncnn45)[C@H](O)[C@@H]3O2)cc1 (some centres unmarked) [Compound 156] | > 0.5 µM | > 0.5 µM | 0.1 to 0.5 µM | > 0.5 µM | 
24 | CCCN(CCC)S(=O)(=O)c1ccc(C(=O)OCO[P@]2(=O)OCC3O[C@@](C#N)(c4ccc5c(N)ncnn45)[C@H](O)[C@@H]3O2)cc1 (some centres unmarked) [Compound 157] | > 0.5 µM | > 0.5 µM | 0.1 to 0.5 µM | > 0.5 µM | 
25 | CCCN(CCC)S(=O)(=O)c1ccc(C(=O)O[C@@H]2[C@@H]3OP(=O)(O)OC[C@H]3O[C@@]2(C#N)c2ccc3c(N)ncnn23)cc1 [Compound 158] | > 0.5 µM | > 0.5 µM | > 0.5 µM | > 0.5 µM | 
26 | CCCN(CCC)S(=O)(=O)c1ccc(C(=O)OCO[P@](=O)(N[C@@H](C)C(=O)OCC(CC)CC)OC[C@H]2O[C@@](C#N)(c3ccc4c(N)ncnn34)[C@H](O)[C@@H]2O)cc1 [Compound 160] | > 0.5 µM | > 0.5 µM | > 0.5 µM | > 0.5 µM | 
